Assays:
[1] = tested on: dendritic cells; assay: Migration of dendritic cells to draining ganglions in mouse sensitised by FITC hapten (AK100 ± OX100, Example 5); format: in vivo; conditions: for Migration inhibition in %: FITC
Procedure: FITC (Fluoresceine isothiocyanate, Sigma, St. Louis, Mo.) was diluted extemporaneously in a mixture of acetone and dibutylphthalate (1:1).
Alkanolamide AK100 and OX100 (described above) were supplied by “Laboratoires Expanscience” and formulated alone or in association in an inert vehicle compatible with a topical application [AK100 (0.05%)±OX100 (0.05%)]. The different formulations were applied on the ears of mice twice per day for 4 consecutive days. Three hours after the last application, 1.5% of FITC was applied on both ears (one treated and the other not treated (Control)).
The effect of the two molecules was evaluated in vivo in the mouse. 1.5% FITC (2×5 μl) was applied on the skin of both ears. 24 h later, the mice were sacrificed and a cellular suspension was prepared from auricular and cervical ganglions (draining ganglions, hereinafter denoted GL) or from the poplital ganglions (non-draining ganglions, negative control). The tissues were cut and cells separated by filtration (100 μm filter, Falcon; Becton Dickinson) and then washed. The cells were then centrifuged for 10 minutes at 600×g (m×s^−2) on a metrizamide gradient (14.5% in RPMI 1640; 7.5% SVF). The interface cells were retrieved, rinsed and then marked with an anti-CDS86 PE-conjugated, biot-MHC CLII mAbs AC plus streptavidine-Cya (PharMingen) and analysed by flux cytometry. Only the FITC^+, PE^+ and Cya^+ cells are counted since they represent the population of cells that migrated from the skin to GLs following the application of hapten.

[2] = tested on: dendritic cells generated in vitro from CD34+ precursors derived from blood from the umbilical cord; assay: Migration of dendritic cells generated in vitro from CD34+ precursors of umbilical cord blood, activated by hapten BB; format: cell-based, human; conditions: for Percentage of dendritic cells generated in vitro that migrated: BB + AK100 1 μM; for inhibition at 1 µM: Homo sapiens, Dendritic cell
Procedure: Mononucleated cells were obtained from blood from the umbilical cord of healthy donors by centrifuging on Ficoll. The CD34+ cells were then purified by immunoselection using a specific antibody and magnetic balls (Miltenyi Biotech, Germany). The CD34+ cells were cultivated in the presence of GM-CSF (100 ng/ml), TNF-α (2.5 ng/ml) in RPMI to which 10% calf foetus serum was added for 5 days. TGF-β1, a factor that encourages differentiation of cells to the Langerhans cells […], was added on the 5th day of culture.
Cells were treated by hapten BB on the 7th day (Brandowski base, 1.17 μg/ml) for 24 h, and were then subjected to the migration test.
The results represent the percentage of cells that migrated in the presence of the different tested products. The percentage is calculated by taking the ratio of the number of cells recovered in the lower compartment of the migration chamber, to the number of cells subjected to migration. AK100 inhibits the migration of dendritic cells by 51 and 25% in experiments 1 and 2 respectively.

[3] = tested on: dendritic cells; assay: Migration of dendritic cells to draining ganglions in mouse sensitised by FITC hapten (AK100 ± LU105, Example 4); format: in vivo
From the text: FITC (Fluoresceine isothiocyanate, Sigma, St Louis, Mo.) was extemporaneously diluted in an acetone mix (dibutylphthalate (1:1)).
Alkanolamide AK100 and LU105 (LU 105 is an MMP inhibitor, corresponding to a peptide extract of white lupin marketed by the Expanscience Company under the brand name Actimp (193®) were supplied by “Laboratoires Expanscience” and formulated alone or association with each other in an inert vehicle compatible with a topical application (alkanolamide AK100 (0.1%)± LU105 (2%)). The different formulations were applied on the ears of mice twice per day for 4 consecutive days. 1.5% of FITC was applied on both ears (one treated and the other not treated (Control)) three hours after the last application.
The effect of the two molecules was evaluated in vivo in the mouse. 1.5% FITC (2×5 μl) was applied on the skin of both ears. […] The cells were then centrifuged for 10 minutes at 600×g (m×s^−2) on a metrizamide gradient (14.5% in RPMI 1640; 7.5% SVF) The interface cells were retrieved, rinsed and then marked with an anti-CDS86 PE-conjugated, biot-MHC CLII mAbs AC plus streptavidine-Cya (PharMingen) and analysed by flux cytometry. Only the FITC^+, PE^+ and Cya^+ cells are counted since they represent the population of cells that migrated from the skin to GLs following the application of hapten.

[4] = tested on: Langerhans cells freshly isolated from human skin; assay: Migration of Langerhans cells freshly isolated from human skin, activated by DNSB (two-compartment Matrigel chamber); format: cell-based
Procedure: Epidermal cell suspensions were obtained by enzymatic treatment (0.05% trypsine for 18 h at +4° C.) of fragments of normal human skin taken from plastic surgery. The suspensions obtained contain an average of 2 to 4% of LC. Obtaining suspensions containing an average of 70% of LC is based on the principle of centrifuging on density gradient (Lymphoprep™) and elimination of keratinocytes.
The basic medium chosen for the entire study was PRMI 1640 (Gibco BRL, France). The AK100 molecule supplied by Pharmascience, with a concentration of 10^−2 M in solution in DMSO (Dimethyl Sulfoxide) was diluted in RPMI-1640 and tested at 1 μM.
The sensitising agent was DNSB (Sigma Aldrich), a soluble form of DNCB (dinitro-chloro-benzene) solubilised in RPMI-BSA and used at a concentration of 50 μM.
A culture chamber system with two compartments (Falcon, Becton Dickinson, France) was used. The upper compartment is separated from the lower compartment by a membrane with 8 μm porosity, on which 50 μg/cm^2 Matrigel was deposited. […] After 18 h incubation at 37° C., the number of living cells that passed through the Matrigel and that are located in the lower compartment is counted under a microscope (the LCs are easily identifiable by their dendritic form). […]

[5] = mice sensitised by FITC hapten, topical

Row | SMILES | Migration inhibition in % ([1]; AK100 0.05% topical on ears twice per day for 4 days) [%] | Inhibition of migration of DCs to LGs [1, 5] | Inhibition of migration of dendritic cells activated by hapten BB ([2]; 1 μM) | Percentage of dendritic cells generated in vitro that migrated ([2]; Experiment 1, BB alone 17) [%] | Percentage of dendritic cells generated in vitro that migrated ([2]; Experiment 2, BB alone 24) [%] | inhibition at 1 µM ([2]; Experiment 1, 1 μM) [%] | inhibition at 1 µM ([2]; Experiment 2, 1 μM) [%] | Migration inhibition in % ([3]; 0.1% topical on ears twice per day for 4 days, FITC) [%] | Inhibition of migration of DCs to LGs [3, 5] | Inhibition of migration of LCs induced by DNSB ([4]; 1 μM) | LC migration index ([4]; DNSB 50 μM + AK100 1 μM, 18 h, control cells set to 1, DNSB alone 2.55) | Migration inhibition in % ([1]; OX100 0.05% topical on ears twice per day for 4 days) [%]
1 | CCCCCCCCCCCC(=O)NC(C)(C)CO [AK100] | 15 | significantly inhibits | significantly inhibits | 8.4 | 18 | 51 | 25 | 30 | significantly inhibits | significantly inhibits | 1.11 | 
2 | CCCCCCCCCCCC1=NC(C)(C)CO1 [OX100, 2-undecyl-4,4-dimethyl-1,3-oxazoline] |  |  |  |  |  |  |  |  |  |  |  | 15
